Earlier results in article PMC5599218 (Biomaterials, 2017).
Where “and” joins values, the source holds several entries; their conditions need not be identical. Equal values may be shown once.

What was measured:
[1] = women using DPV vaginal rings for 7d; ref [54]
[2] = DPV vaginal films, after 6h exposure, estimated; ref [59]
HIV-1 = details: ref [52]
[3] = oral daily dosing, 12h after the last dose; ref [52]

| SMILES | Mean vaginal fluid concentrations of DPV [1] | DPV provided to human cervical explant tissues [2] | in vitro IC50 (HIV-1) | ETR concentration in cervicovaginal fluid (CVF) [3] |
| --- | --- | --- | --- | --- |
| Cc1cc(C)c(Nc2ccnc(Nc3ccc(C#N)cc3)n2)c(C)c1 [DPV, Dapivirine] | 0.7 to 7.1 µg/mL | 152–334 nM and 0.05–0.11 μg/mL | – | – |
| Cc1cc(C#N)cc(C)c1Oc1nc(Nc2ccc(C#N)cc2)nc(N)c1Br [ETR, etravirine] | – | – | ~ 2 ng/mL | 0.857 µg/mL |
